Experimental data: patent publication US10351547B2, “Somatostatin modulators and uses thereof” (priority 2016, dated 2019)

Each molecule was assayed against human SSTR2 (Homo sapiens (Human), UniProt P30874) (assay: Human SSTR2 intracellular cAMP functional assay for agonists (HTRF)). Conditions: not given.
Chain of human SSTR2 (P30874 whole entry): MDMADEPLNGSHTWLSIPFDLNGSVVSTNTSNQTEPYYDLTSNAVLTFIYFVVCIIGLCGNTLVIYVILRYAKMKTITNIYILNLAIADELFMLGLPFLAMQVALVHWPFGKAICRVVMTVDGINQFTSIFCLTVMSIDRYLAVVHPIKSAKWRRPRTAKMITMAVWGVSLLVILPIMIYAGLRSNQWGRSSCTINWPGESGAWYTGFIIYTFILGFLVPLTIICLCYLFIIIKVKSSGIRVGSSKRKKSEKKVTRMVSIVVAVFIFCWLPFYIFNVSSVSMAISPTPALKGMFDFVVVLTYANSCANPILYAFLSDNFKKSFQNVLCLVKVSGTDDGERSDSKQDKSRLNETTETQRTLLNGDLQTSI
Assay type: cell-based
Description: Functional Assay for SSTR2 Agonists
General overview: All five SSTR subtypes are Gi coupled G-protein coupled receptors (GPCRs) that lead to decreases in intracellular cyclic AMP (cAMP) when activated by an agonist. […] Human SSTR2 intracellular cAMP assay is described below. The human SSTR1, 3, 4 and 5 assays follow the same protocol of SSTR2.
The cells are cultured at 37° C., 5% CO2 and 95% humidity. […] The cells are incubated for 20 minutes at 37° C. […] The cells are treated with 50 μL of lysis buffer (HRTF cAMP kit, Cisbio). […] The time-resolved fluorescent signal is read with a Tecan M1000Pro multiplate reader. The intracellular cAMP concentrations are calculated by regression to a standard curve and are plotted vs. the concentration of the compounds of the invention and the EC50 of the compounds are calculated using standard methods. All data manipulations are in GraphPad Prism v6.
Work on `CS(=O)(=O)Nc1c(F)cc(F)cc1-c1ccc2ncc(-c3cc(F)cc(F)c3)c(N3CCC(N)CC3)c2c1` [2-86, N-{2-[4-(4-aminopiperidin-1-yl)-3-(3,5-difluorophenyl)quinolin-6-yl]-4,6-difluorophenyl}methanesulfonamide] yielded an EC50 of 100 to 1000 nM. With `Cc1cc(F)cc(-c2cnc3ccc(-c4cc(F)cc(C#N)c4O)cc3c2N2CC(CN3CCCCC3)C2)c1` [2-50, 5-fluoro-3-[3-(3-fluoro-5-methylphenyl)-4-[3-(piperidin-1-ylmethyl)azetidin-1-yl]quinolin-6-yl]-2-hydroxybenzonitrile] the EC50 was 10 to 100 nM. For `COCC(C)(C)NCC1CN(c2c(-c3cc(C)cc(F)c3)cnc3ccc(-c4cc(F)cc(C#N)c4O)cc23)C1` [2-39, 5-fluoro-3-[3-(3-fluoro-5-methylphenyl)-4-(3-{[(1-methoxy-2-methylpropan-2-yl)amino]methyl}azetidin-1-yl)quinolin-6-yl]-2-hydroxybenzonitrile], the EC50 was 100 to 1000 nM. Molecule `Cc1cc(F)cc(-c2cnc3ccc(-c4cc(F)cc(C(N)=O)c4)cc3c2N2CC(C)(CN)C2)c1` [2-14, 3-{4-[3-(aminomethyl)-3-methylazetidin-1-yl]-3-(3-fluoro-5-methylphenyl)quinolin-6-yl}-5-fluorobenzamide] has an EC50 of 10 to 100 nM. Molecule `CCON=Cc1cc(F)cc(-c2cnc3ccc(-c4cccc(C#N)c4O)cc3c2N2CCC(N)CC2)c1` [2-79, 3-[4-(4-aminopiperidin-1-yl)-3-{3-[(ethoxyimino)methyl]-5-fluorophenyl}quinolin-6-yl]-2-hydroxybenzonitrile] has an EC50 of 100 to 1000 nM. With `N#Cc1cccc(-c2ccc3nnc(-c4cc(F)cc(F)c4)c(N4CCC(N)CC4)c3c2)c1O` [1-20, 3-[4-(4-aminopiperidin-1-yl)-3-(3,5-difluorophenyl)cinnolin-6-yl]-2-hydroxybenzonitrile] the EC50 was 10 to 100 nM. `N#Cc1cccc(-c2cnc3ncc(-c4cc(F)cc(F)c4)c(N4CCC(N)CC4)c3c2)c1O` [4-1, 3-[5-(4-aminopiperidin-1-yl)-6-(3,5-difluorophenyl)-1,8-naphthyridin-3-yl]-2-hydroxybenzonitrile] showed an EC50 of 10 to 100 nM.

Same assay, conditions: CHO-K1 cells stably expressing human SSTR2; NKH477-stimulated cAMP; read-out: EC50 (inhibition of cAMP activities via human SST2R)
`Cc1ccnc(-c2ccc3ncc(-c4cc(F)cc(F)c4)c(N4CC[C@H]5NCCO[C@@H]5C4)c3c2)c1N` (relative stereo) [2-247, 2-{4-[trans-octahydro-1H-pyrido[3,4-b]morpholin-6-yl]-3-(3,5-difluorophenyl)quinolin-6-yl}-4-methylpyridin-3-amine] was tested, and the EC50 was < 10 nM. In the case of `COC(=O)Nc1c(F)cc(F)cc1-c1ccc2ncc(-c3cc(F)cc(OC)c3)c(N3CCC(N)CC3)c2c1` [2-165, methyl N-{2-[4-(4-aminopiperidin-1-yl)-3-(3-fluoro-5-methoxyphenyl)quinolin-6-yl]-4,6-difluorophenyl}carbamate], the EC50 is reported as < 10 nM. With `CCONC(=O)Nc1c(F)cc(F)cc1-c1ccc2ncc(-c3cc(C)cc(F)c3)c(N3CCC(N)CC3)c2c1` [2-228, 1-{2-[4-(4-aminopiperidin-1-yl)-3-(3-fluoro-5-methylphenyl)quinolin-6-yl]-4,6-difluorophenyl}-3-ethoxyurea] the EC50 was < 10 nM. With `Cc1cc(F)cc(-c2cnc3ccc(-c4cc(F)cc(C#N)c4O)cc3c2N2CC(CNC(C)C)C2)c1` [2-25, 5-fluoro-3-[3-(3-fluoro-5-methylphenyl)-4-(3-{[(propan-2-yl)amino]methyl}azetidin-1-yl)quinolin-6-yl]-2-hydroxybenzonitrile] the EC50 was < 10 nM. In the case of `NC1CCN(c2c(-c3cc(F)cc(F)c3)cnc3ccc(-c4cncc(F)c4C=NO)cc23)CC1` [2-152, 1-[3-(3,5-difluorophenyl)-6-{5-fluoro-4-[(hydroxyimino)methyl]pyridin-3-yl}quinolin-4-yl]piperidin-4-amine], the EC50 is reported as < 10 nM. For `NC(=O)c1cc(F)cc(-c2ccc3nnc(-c4cc(Cl)cc(Cl)c4)c(N4CCC(NCCC(F)(F)F)CC4)c3c2)c1` [1-32, 3-[3-(3,5-dichlorophenyl)-4-{4-[(3,3,3-trifluoropropyl)amino]piperidin-1-yl}cinnolin-6-yl]-5-fluorobenzamide], the EC50 was < 10 nM. For `Nc1cc(F)cnc1-c1ccc2ncc(-c3cc(F)cc(F)c3)c(N3CC[C@H]4NCCO[C@@H]4C3)c2c1` (relative stereo) [2-265, 2-{4-[trans-octahydro-1H-pyrido[3,4-b]morpholin-6-yl]-3-(3,5-difluorophenyl)quinolin-6-yl}-5-fluoropyridin-3-amine], the EC50 was < 10 nM. `Cc1cc(C)cc(-c2nnc3cc(Cl)c(-c4cc(F)cc(C(N)=O)c4)cc3c2N2CCC(N)CC2)c1` [1-1, 3-[4-(4-aminopiperidin-1-yl)-7-chloro-3-(3,5-dimethylphenyl)cinnolin-6-yl]-5-fluorobenzamide] was tested, and the EC50 was < 10 nM. `NC1CCN(c2c(-c3cc(F)cc(C(F)(F)F)c3)cnc3ccc(-c4cncc(F)c4C=NO)cc23)CC1` [2-176, 1-(6-{5-fluoro-4-[(hydroxyimino)methyl]pyridin-3-yl}-3-[3-fluoro-5-(trifluoromethyl)phenyl]quinolin-4-yl)piperidin-4-amine] was tested, and the EC50 was < 10 nM. `Nc1c(-c2ccc3ncc(-c4cc(F)cc(F)c4)c(N4CC[C@H]5NCCO[C@@H]5C4)c3c2)cnn1C1COC1` (relative stereo) [2-268, 4-{4-[trans-octahydro-1H-pyrido[3,4-b]morpholin-6-yl]-3-(3,5-difluorophenyl)quinolin-6-yl}-1-(oxetan-3-yl)-1H-pyrazol-5-amine] showed an EC50 of 10 to 100 nM. With `COc1cc(F)cc(-c2cnc3ccc(-c4cccc(F)c4C=NO)cc3c2N2CCC(N)CC2)c1` [2-166, 1-(6-{3-fluoro-2-[(hydroxyimino)methyl]phenyl}-3-(3-fluoro-5-methoxyphenyl)quinolin-4-yl)piperidin-4-amine] the EC50 was < 10 nM. For `Cc1cc(F)cc(-c2cnc3ccc(-c4cc(F)cc(C#N)c4O)cc3c2N2CC(CN3CC[C@@H](F)C3)C2)c1` [2-48, 5-fluoro-3-[3-(3-fluoro-5-methylphenyl)-4-(3-{[(3R)-3-fluoropyrrolidin-1-yl]methyl}azetidin-1-yl)quinolin-6-yl]-2-hydroxybenzonitrile], the EC50 was < 10 nM. `COCC(=O)Nc1c(F)cc(F)cc1-c1ccc2ncc(-c3cc(C)cc(F)c3)c(N3CCC(N)CC3)c2c1` [2-230, N-{2-[4-(4-aminopiperidin-1-yl)-3-(3-fluoro-5-methylphenyl)quinolin-6-yl]-4,6-difluorophenyl}-2-methoxyacetamide] was tested, and the EC50 was < 10 nM. `Cc1cc(F)cc(-c2cnc3ccc(-c4cccc(C(N)=O)n4)cc3c2N2CCC(N)CC2)c1` [2-7, 6-[4-(4-aminopiperidin-1-yl)-3-(3-fluoro-5-methylphenyl)quinolin-6-yl]pyridine-2-carboxamide] was tested, and the EC50 was < 10 nM. In the case of `Cc1cc(F)cc(-c2cnc3ccc(-c4cc(F)cc(C#N)c4O)cc3c2N2CC(CNCC(C)(C)O)C2)c1` [2-40, 5-fluoro-3-[3-(3-fluoro-5-methylphenyl)-4-(3-{[(2-hydroxy-2-methylpropyl)amino]methyl}azetidin-1-yl)quinolin-6-yl]-2-hydroxybenzonitrile], the EC50 is reported as < 10 nM. For `Cc1cc(F)cc(-c2cnc3ccc(-c4cc(F)cnc4N)cc3c2N2CCC(N)CC2)c1` [2-178, 3-[4-(4-aminopiperidin-1-yl)-3-(3-fluoro-5-methylphenyl)quinolin-6-yl]-5-fluoropyridin-2-amine], the EC50 was < 10 nM. For `CONC(=O)Nc1ccc(C#N)cc1-c1ccc2ncc(-c3cc(C)cc(F)c3)c(N3CCC(N)CC3)c2c1` [2-222], the EC50 was < 10 nM. With `COC(=O)Nc1c(Cl)cncc1-c1ccc2ncc(-c3cc(C)cc(F)c3)c(N3CCC(N)CC3)c2c1` [2-184, methyl N-{3-[4-(4-aminopiperidin-1-yl)-3-(3-fluoro-5-methylphenyl)quinolin-6-yl]-5-chloropyridin-4-yl}carbamate] the EC50 was < 10 nM. For `CON(C)C(=O)Nc1c(F)cccc1-c1ccc2ncc(-c3cc(C)cc(F)c3)c(N3CCC(N)CC3)c2c1` [2-210, 1-{2-[4-(4-aminopiperidin-1-yl)-3-(3-fluoro-5-methylphenyl)quinolin-6-yl]-6-fluorophenyl}-3-methoxy-3-methylurea], the EC50 was < 10 nM. In the case of `Cc1cc(F)cc(-c2cnc3ccc(-c4cc(F)cc(C#N)c4O)cc3c2N2CC(CNCCCF)C2)c1` [2-28, 5-fluoro-3-[3-(3-fluoro-5-methylphenyl)-4-(3-{[(3-fluoropropyl)amino]methyl}azetidin-1-yl)quinolin-6-yl]-2-hydroxybenzonitrile], the EC50 is reported as < 10 nM. `Cc1cc(Cl)cc(-c2nnc3ccc(-c4cc(F)cc5[nH]c(=O)[nH]c45)cc3c2N2CCC(N)CC2)c1` [1-24, 4-[4-(4-aminopiperidin-1-yl)-3-(3-chloro-5-methylphenyl)cinnolin-6-yl]-6-fluoro-2,3-dihydro-1H-1,3-benzodiazol-2-one] was tested, and the EC50 was < 10 nM. In the case of `COC(=O)Nc1c(C#N)cccc1-c1ccc2ncc(-c3cc(F)cc(F)c3)c(N3CCC(N)CC3)c2c1` [2-148, methyl N-{2-[4-(4-aminopiperidin-1-yl)-3-(3,5-difluorophenyl)quinolin-6-yl]-6-cyanophenyl}carbamate], the EC50 is reported as < 10 nM. For `Cn1ncc(-c2ccc3ncc(-c4cc(F)cc(F)c4)c(N4CC[C@H]5NCCO[C@@H]5C4)c3c2)c1C=NO` (relative stereo) [2-253, N-[(4-{4-[trans-octahydro-1H-pyrido[3,4-b]morpholin-6-yl]-3-(3,5-difluorophenyl)quinolin-6-yl}-1-methyl-1H-pyrazol-5-yl)methylidene]hydroxylamine], the EC50 was < 10 nM. For `NC1CCN(c2c(-c3cc(F)cc(F)c3)cnc3ccc(-c4c(O)c(Cl)cc(F)c4F)cc23)CC1` [2-134, 2-[4-(4-aminopiperidin-1-yl)-3-(3,5-difluorophenyl)quinolin-6-yl]-6-chloro-3,4-difluorophenol], the EC50 was < 10 nM.
